Measured values published in US12060360B2, “Lysyl oxidase inhibitors” (The Institute of Cancer Research: Royal Cancer Hospital, priority 2017, dated 2024).

Assays:
[1] = system: SW620 human colorectal carcinoma cells (mutant RAS); test: SW620 xenografts, primary tumour volume T/C; type: in vivo; settings: 200 mg/kg po qd; ratio of average tumour volume treated/vehicle control; p<0.05
Description: (§1) All procedures involving animals were approved by the Animal Welfare and Ethical Review Body of the Institute of Cancer Research and Cancer Research UK Manchester Institute in accordance with National Home Office regulations under the Animals (Scientific Procedures) Act 1986 and according to the guidelines of the Committee of the National Cancer Research Institute Tumour size was determined by caliper measurements of tumour length, width and depth and volume was calculated as volume=0.5236×length×width×depth (mm).
SW620 xenografts: NCr mice were inoculated subcutaneously in the right flank with 5×10^6 SW620 cells at 100 ul suspension per animal. Groups of 7-8 mice were assigned to treatment following stratified allocation of tumour volumes with a median size of circa 100 mm^3. […] Tumours and weights are measured twice weekly using calipers. […] Frozen samples are kept at −80 degree centigrade until being analysed and the fixed samples stained according to the desired marker.
For therapeutic efficacy assessment, the ratio of average tumour volume between compound treated and vehicle control treated (T/C) is calculated. […] The efficacy of LOX inhibitors described in this invention, as measured by T/C in a pancreatic cancer model, a colorectal cancer model and a breast cancer model is shown in Table 2 and is significant (p<0.05) for all the data presented.

[2] = system: MDA-MB-231 human breast adenocarcinoma; test: MDA-MB-231 xenografts, primary tumour volume T/C; type: in vivo; settings: 200 mg/kg po qd, ratio of average tumour volume treated/vehicle control, p<0.05
Description: as §1
MDA-MB-231 xenografts. Ncr nude female mice at 6 weeks old from Charles River were injected into the third upper nipple mammary fat pad with MDA-MB-231 Luc 4×10^6 in 100 ul PB (50:50 Matrigel). When tumours reach a mean of 80 mm^3 around 10 days post cell inoculation the animals are allocated in 4 groups of 8. LOX inhibitor treatment is then administrated by oral gavage dosing, at 0.2 ml/20 g bodyweight once daily for up to 28 consecutive days. Tumours and weights are measured twice weekly using calipers and the animals can be imaged using non invasive method by bioluminescence using IVIS 200 imaging machine, weekly using 150 mg/kg luciferin administrate intraperitoneal or subcutaneous. At the end of the study the animals are culled, and samples taken, fixed or snap frozen in liquid nitrogen. Frozen samples kept at −80 degree centigrade until being analyzed and the fixed samples stained according to desired marker.
(§2) For therapeutic efficacy assessment, the ratio of average tumour volume between compound treated and vehicle control treated (T/C) is calculated. Reduction in tumour volume in the compound treated group compared to vehicle-treated control group results in T/C<1. The efficacy of LOX inhibitors described in this invention, as measured by T/C in a pancreatic cancer model, a colorectal cancer model and a breast cancer model is shown in Table 2 and is significant (p<0.05) for all the data presented.

LOX = target: T1, LOX (Mus musculus, UniProt P28301); test: LOX activity in cysts assay (LOX-roGFP2 biosensor, MDCK cysts); type: cell-based; settings: MDCK cysts, roGFP2 ratio at basal surface; read-out: LOX biosensor IC50 (cyst)
T1 construct: Full length LOX cDNA was then PCR cloned into pEGFP-N1 (Clonetech), or biosensor vector proGFP2-N1; expressed in transfected cells; host or cells: MDCK cells grown as cysts on Matrigel, G418-selected
T1 sequence (P28301 163-411): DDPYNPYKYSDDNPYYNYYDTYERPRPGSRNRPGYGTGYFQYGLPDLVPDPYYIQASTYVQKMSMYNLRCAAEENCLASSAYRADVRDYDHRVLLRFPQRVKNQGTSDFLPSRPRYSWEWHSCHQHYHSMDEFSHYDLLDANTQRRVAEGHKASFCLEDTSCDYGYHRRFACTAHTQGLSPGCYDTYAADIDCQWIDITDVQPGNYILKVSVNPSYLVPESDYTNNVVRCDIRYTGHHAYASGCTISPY
Summary of the method: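 Live MDCK cysts grown 10 days on Matrigel and expressing mouse LOX fused to the roGFP2 redox biosensor, with inhibitors added 30 min before confocal imaging. Oxidised/reduced ratio (405/488 nm excitation, 500–530 nm emission) at the basal cyst surface taken as LOX activity. DMSO defines 0% and 1 mM BAPN 100% inhibition.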

[3] = system: MMTV-PyMT breast transgenic model primary tumour; test: MMTV-PyMT transgenic mouse breast cancer model, primary tumour T/C; type: in vivo; settings: 200 mg/kg po qd; ratio of average tumour volume treated/vehicle control; p<0.05
Description: as §1
MMTV-PyMT (Guy et al, 1992) (FVB) female mice were randomized by non-statistical methods to LOX inhibitor treatment groups from day 70 post-birth, when animals had no detectable tumour. Mice were treated daily by oral gavage with LOX inhibitor in vehicle, or daily vehicle (5% DMSO/2.5% Tween20 in water) by oral gavage. Tumour size was determined unblinded by caliper measurements of tumour length, width and depth and volume was calculated as 0.5236×length×width×depth (mm). In all experiments, mice were humanely killed and mammary tumours and lungs were collected when the primary tumours reached ethical limits or signs of ill health.
as §2

CCOc1ccc(N2C[C@H]3CN(CCCC#N)C[C@@H]2C(C)(C)C3)cc1 [Example 42, 4-((1R,5S)-6-(4-ethoxyphenyl)-9,9-dimethyl-3,6-diazabicyclo[3.2.2]nonan-3-yl)butanenitrile]
T/C SW620 human colorectal carcinoma cells (mutant RAS) - primary tumour [1]: 0.54 | response vs control in vivo at 200 mg/kg [2]: 41% | IC50 (LOX): < 0.63 µM | T/C MMT-PyMT breast transgenic model - primary tumour [3]: 0.50
